We go through 3 compounds from patent US4390528A, “Tuftsinyl-tuftsin” (Research Corporation, priority 1981, dated 1983).

Where a SMILES comes first, the peptide text is derived from it. Where no end group is shown, it is not given here.

Assay [1] has as its system therapeutic action of tuftsin. Kind of assay: Inhibition of the therapeutic action of tuftsin. The following applies: tripeptide formed by degradation of administered tuftsin. The protocol:
Thus, if large amounts of tuftsin are administered, for example, parenterally a rather complex series of reactions takes place. One is the desired therapeutically useful reaction, another is the formation of the inhibitory tripeptide and the third is the inhibitory reaction. The rate of the last two reactions is, unfortunately, so high that the administration of higher doses of the therapeutic agent is counterproductive. As more is administered, more of the inhibitory tripeptide is produced and less of the tuftsin is available to fulfill its therapeutic purpose.

The test system of assay [2] is blood polymorphonuclear leucocytes. The following applies: especially neutrophilic leucocytes, in mammals, known for some time; cited from earlier work.
Assay [3] relates to 316 mouse melanoma cells. In words: Antineoplastic activity against 316 mouse melanoma cells.
Assay [4] has as its system Cloudman S-91 mouse melanoma cells. Kind of assay: Antineoplastic activity against Cloudman S-91 mouse melanoma cells.
Assay [5] relates to blood polymorphonuclear leucocytes. In words: Stimulation of phagocytosis and pinocytosis. The assay is classed as cell-based, mammals. An excerpt: It also stimulates pinocytosis to the same extent allowing the cells to obtain nourishment from the surrounding medium.
For assay [6], the system named is L1210 cells. In words: Survival of DBA/2 mice injected intraperitoneally with L1210 cells. The following applies: 25 DBA/2 mice, 20 μg intraperitoneally on days -7, -4 and 0; L1210 cells i.p. on day 0; control animals all dead by day 18. The assay is classed as in vivo, mouse. How it is done:
In one experiment, 25 DBA/2 mice were injected each with 20 μg of the octapeptide intraperitoneally on days -7, -4 and 0. On the last mentioned day, L1210 cells were also injected intraperitoneally in experimental animals and solvent buffer alone in 25 control mice. The animals were observed daily and deaths recorded. The control animals were all dead by day 18, whereas the treated mice survived 32 days.

Assay [7] relates to L1210 mouse leukemia cells. Kind of assay: Antineoplastic activity against L1210 mouse leukemia cells.

As to `N=C(N)NCCC[C@H](NC(=O)[C@@H]1CCCN1C(=O)[C@@H](N)CCCCN)C(=O)O` [lysyl-prolyl-arginine] (H-Lys-Pro-Arg-OH), the “effect on the therapeutic action of tuftsin” value in assay [1] was “acts as an inhibitor”.
With “L-threonyl-L-lysyl-L-propyl-L-arginine [tuftsin]”, in assay [2], the “stimulation of phagocytosis and destruction of bacteria by leucocytes” value is on record as “has the ability to stimulate phagocytosis”.
On to “TKPRTKPR [Tuftsinyl-tuftsin, L-Threonyl-L-Lysyl-L-Prolyl-L-Arginyl-L-Threonyl-L-Lysyl-L-Prolyl-L-Arginine]”, for which the antineoplastic activity entry in assay [3], in assay [4] and in assay [7] was “manifests antineoplastic activity” each time. Besides, the “stimulation of phagocytosis and pinocytosis” value in assay [5] was “stimulator of phagocytosis and pinocytosis”. The “survival of treated mice” value in assay [6] was found to be 32 days.
